# Source: US20240025862A1, “SUBSTITUTED N-PHENYLURACILS AND SALTS THEREOF, AND USE THEREOF AS HERBICIDAL ACTIVE SUBSTANCES” (Bayer Aktiengesellschaft, priority 2020, published 2024)
# Columns and labels:
# Assay type in all cases: in vivo
# [1] = test system: Abutilon theophrasti (ABUTH); assay: Post-emergence herbicidal action, greenhouse pot test; settings: rated visually after about 3 weeks vs untreated controls, 100% = plants have died
# How it was run: (§1)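 Greenhouse-grown weeds in sandy loam were sprayed post-emergence at the one-leaf stage, 2–3 weeks after sowing. Compounds were formulated as WP or EC in water with 0.5% additive at 600 l/ha, at rates of 20 g/ha or less. Visual rating after about 3 weeks used a scale from 0% (like untreated control) to 100% (plants dead).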
# [2] = test system: Amaranthus retroflexus (AMARE); assay: as above; settings: rated visually after about 3 weeks vs untreated controls, 100% = plants have died
# How it was run: as §1
# Avena fatua (AVEFA) = assay: as above; settings: 20 g/ha, rated visually after about 3 weeks vs untreated controls, 100% = plants have died
# How it was run: as §1
# [3] = test system: Pharbitis purpurea (PHBPU); assay: as above
# How it was run: as §1
# [4] = test system: Polygonum convolvulus (POLCO); assay: as above; settings: dosage 20 g/ha
# How it was run: as §1
# Veronica persica (VERPE) = assay: as above
# How it was run: as §1
# Viola tricolor (VIOTR) = assay: as above
# How it was run: as §1
# [5] = test system: Alopecurus myosuroides (ALOMY); assay: Post-emergence herbicidal action, greenhouse pot test (also comparative test C); settings: rated visually after about 3 weeks vs untreated controls, 100% = plants have died
# How it was run: (§2)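 Green parts of one-leaf-stage plants are sprayed at 600 l/ha with formulated compound plus 0.5% additive, then kept under optimum greenhouse conditions for about 3 weeks. Damage is scored visually, where 100% means dead plants and 0% means no difference from controls.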
# [6] = test system: Echinochloa crus-galli (ECHCG); assay: as above
# How it was run: as §2
# [7] = test system: Matricaria inodora (MATIN); assay: as above
# How it was run: as §2
# Setaria viridis (SETVI) = assay: as above
# How it was run: as §2
# [8] = test system: Triticum aestivum (TRZAS); assay: Post-emergence crop plant compatibility, greenhouse pot test; settings: vs untreated controls
# How it was run: (§3)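 Crop plants grown in sandy loam in the greenhouse were sprayed post-emergence at the one-leaf stage, 2–3 weeks after sowing, with WP or EC formulations as aqueous suspension/emulsion plus 0.5% additive at 600 l/ha. Damage was rated visually about 3 weeks later versus untreated controls (0% = like control, 100% = plants dead).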
# Zea mays (ZEAMX) = assay: as above; settings: 1.25 g/ha, vs untreated controls
# How it was run: as §3
# Oryza sativa (ORYSA) = assay: Post-emergence crop plant compatibility, greenhouse pot test (also comparative test C); settings: for Post-emergence action against ORYSA (crop plant compatibility): vs untreated controls
# How it was run: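 Rice and other crops sprayed post-emergence at one-leaf stage (2–3 weeks after sowing) with WP or EC formulations plus 0.5% additive at 600 l/ha water. Visual rating about 3 weeks later versus untreated controls (100% = dead, 0% = like control); suffixes a–c denote different doses.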
compound,measurement,setting,value
Cn1c(C(F)(F)F)cc(=O)n(-c2cc(Oc3ccccc3OCC(=O)OCCOC(F)(F)F)c([N+](=O)[O-])cc2F)c1=O [I.6-41],Post-emergence action at 1.25 g/ha against ABUTH in %,[1]; 1.25 g/ha,100%
same,Post-emergence action at 5 g/ha against ABUTH in %,[1]; 5 g/ha,100%
same,Post-emergence action at 20 g/ha against ABUTH in %,[1]; 20 g/ha,100%
same,Post-emergence action at 1.25 g/ha against AMARE in %,[2]; 1.25 g/ha,100%
same,Post-emergence action at 5 g/ha against AMARE in %,[2]; 5 g/ha,100%
same,Post-emergence action at 20 g/ha against AMARE in %,[2]; 20 g/ha,100%
same,Post-emergence action at 20 g/ha against AVEFA in %,Avena fatua (AVEFA),80%
same,Post-emergence action against PHBPU in %,[3]; dosage 1.25 g/ha,100%
same,Post-emergence action against PHBPU in %,[3]; dosage 5 g/ha,100%
same,Post-emergence action against PHBPU in %,[3]; dosage 20 g/ha,100%
same,Post-emergence action against POLCO in %,[4],100%
same,Post-emergence action against VERPE,Veronica persica (VERPE); 5 g/ha,100%
same,Post-emergence action against VERPE,Veronica persica (VERPE); 20 g/ha,100%
same,Post-emergence action against VIOTR,Viola tricolor (VIOTR); 1.25 g/ha,100%
same,Post-emergence action against VIOTR,Viola tricolor (VIOTR); 5 g/ha,100%
same,Post-emergence action against VIOTR,Viola tricolor (VIOTR); 20 g/ha,100%
same,Post-emergence action at 5 g/ha against ALOMY in %,[5]; 5 g/ha,80%
same,Post-emergence action at 20 g/ha against ALOMY in %,[5]; 20 g/ha,100%
same,Post-emergence action against ECHCG in %,[6]; dosage 5 g/ha,100%
same,Post-emergence action against ECHCG in %,[6]; dosage 20 g/ha,100%
same,Post-emergence action against MATIN in %,[7]; dosage 5 g/ha,80%
same,Post-emergence action against MATIN in %,[7]; dosage 20 g/ha,100%
same,Post-emergence action against SETVI,Setaria viridis (SETVI); 20 g/ha,100%
same,Post-emergence action against SETVI in %,Setaria viridis (SETVI); dosage 1.25 g/ha,100%
same,Post-emergence action against SETVI in %,Setaria viridis (SETVI); dosage 5 g/ha,100%
same,Post-emergence action against TRZAS (crop plant compatibility),[8]; 1.25 g/ha,10%
same,Post-emergence action against TRZAS (crop plant compatibility),[8]; 5 g/ha,20%
same,Post-emergence action against TRZAS (crop plant compatibility),[8]; 20 g/ha,20%
same,Post-emergence action against ZEAMX (crop plant compatibility),Zea mays (ZEAMX),20%
same,Post-emergence action against ORYSA (crop plant compatibility),Oryza sativa (ORYSA); 1.25 g/ha,10%
same,Post-emergence action against ORYSA (crop plant compatibility),Oryza sativa (ORYSA); 5 g/ha,10%
same,Post-emergence action against ORYSA in %,"Oryza sativa (ORYSA); 20 g/ha, crop plant compatibility",20%
"COCC(C)OC(=O)COc1ccccc1Oc1cc(-n2c(=O)cc(C(F)(F)F)n(C)c2=O)c(F)cc1Cl (centres unmarked) [I.7-94, 1-Methoxypropan-2-yl (2-{2-chloro-4-fluoro-5-[3-methyl-2,6-dioxo-4-(trifluoromethyl)-3,6-dihydropyrimidin-1(2H)-yl]phenoxy}phenoxy)acetate]",pest or weed control at 1.25 g/ha,"[1]; Abutilon theophrasti, 504 h, 1.25 g/ha, read-out: Post-emergence action at 1.25 g/ha against ABUTH in %",100%
same,pest or weed control at 5 g/ha,"[1]; Abutilon theophrasti, 504 h, 5 g/ha, read-out: Post-emergence action at 5 g/ha against ABUTH in %",100%
same,pest or weed control at 20 g/ha,"[1]; Abutilon theophrasti, 504 h, 20 g/ha, read-out: Post-emergence action at 20 g/ha against ABUTH in %",100%
same,pest or weed control at 1.25 g/ha,"[2]; Amaranthus retroflexus, 504 h, 1.25 g/ha, read-out: Post-emergence action at 1.25 g/ha against AMARE in %",100%
same,pest or weed control at 5 g/ha,"[2]; Amaranthus retroflexus, 504 h, 5 g/ha, read-out: Post-emergence action at 5 g/ha against AMARE in %",100%
same,pest or weed control at 20 g/ha,"[2]; Amaranthus retroflexus, 504 h, 20 g/ha, read-out: Post-emergence action at 20 g/ha against AMARE in %",100%
same,pest or weed control at 20 g/ha,"Avena fatua (AVEFA); Avena fatua, 504 h, read-out: Post-emergence action at 20 g/ha against AVEFA in %",80%
same,pest or weed control at 1.25 g/ha,"[3]; Ipomoea purpurea, 504 h, dosage 1.25 g/ha, read-out: Post-emergence action against PHBPU in %",100%
same,pest or weed control at 5 g/ha,"[3]; Ipomoea purpurea, 504 h, dosage 5 g/ha, read-out: Post-emergence action against PHBPU in %",100%
same,pest or weed control at 20 g/ha,"[3]; Ipomoea purpurea, 504 h, dosage 20 g/ha, read-out: Post-emergence action against PHBPU in %",100%
same,pest or weed control at 20 g/ha,"[4]; Fallopia convolvulus, 504 h, read-out: Post-emergence action against POLCO in %",100%
same,pest or weed control at 1.25 g/ha,"Veronica persica (VERPE); Veronica persica, 504 h, 1.25 g/ha, read-out: Post-emergence action against VERPE",100%
same,pest or weed control at 5 g/ha,"Veronica persica (VERPE); Veronica persica, 504 h, 5 g/ha, read-out: Post-emergence action against VERPE",100%
same,pest or weed control at 20 g/ha,"Veronica persica (VERPE); Veronica persica, 504 h, 20 g/ha, read-out: Post-emergence action against VERPE",100%
same,pest or weed control at 1.25 g/ha,"Viola tricolor (VIOTR); Viola tricolor, 504 h, 1.25 g/ha, read-out: Post-emergence action against VIOTR",80%
same,pest or weed control at 5 g/ha,"Viola tricolor (VIOTR); Viola tricolor, 504 h, 5 g/ha, read-out: Post-emergence action against VIOTR",100%
same,pest or weed control at 20 g/ha,"Viola tricolor (VIOTR); Viola tricolor, 504 h, 20 g/ha, read-out: Post-emergence action against VIOTR",100%
same,pest or weed control at 5 g/ha,"[5]; Alopecurus myosuroides, 504 h, 5 g/ha, read-out: Post-emergence action at 5 g/ha against ALOMY in %",80%
same,pest or weed control at 20 g/ha,"[5]; Alopecurus myosuroides, 504 h, 20 g/ha, read-out: Post-emergence action at 20 g/ha against ALOMY in %",80%
same,pest or weed control at 5 g/ha,"[6]; Echinochloa crus-galli, 504 h, dosage 5 g/ha, read-out: Post-emergence action against ECHCG in %",100%
same,pest or weed control at 20 g/ha,"[6]; Echinochloa crus-galli, 504 h, dosage 20 g/ha, read-out: Post-emergence action against ECHCG in %",100%
same,pest or weed control at 1.25 g/ha,"[7]; Tripleurospermum inodorum, 504 h, dosage 1.25 g/ha, read-out: Post-emergence action against MATIN in %",80%
same,pest or weed control at 5 g/ha,"[7]; Tripleurospermum inodorum, 504 h, dosage 5 g/ha, read-out: Post-emergence action against MATIN in %",80%
same,pest or weed control at 20 g/ha,"[7]; Tripleurospermum inodorum, 504 h, dosage 20 g/ha, read-out: Post-emergence action against MATIN in %",100%
same,pest or weed control at 20 g/ha,"Setaria viridis (SETVI); Setaria viridis, 504 h, 20 g/ha, read-out: Post-emergence action against SETVI",100%
same,pest or weed control at 1.25 g/ha,"Setaria viridis (SETVI); Setaria viridis, 504 h, dosage 1.25 g/ha, read-out: Post-emergence action against SETVI in %",100%
same,pest or weed control at 5 g/ha,"Setaria viridis (SETVI); Setaria viridis, 504 h, dosage 5 g/ha, read-out: Post-emergence action against SETVI in %",100%
same,Post-emergence action against TRZAS (crop plant compatibility),[8]; 1.25 g/ha,20%
same,Post-emergence action against ZEAMX (crop plant compatibility),Zea mays (ZEAMX),10%
same,Post-emergence action against ORYSA (crop plant compatibility),Oryza sativa (ORYSA); 1.25 g/ha,0%
same,Post-emergence action against ORYSA (crop plant compatibility),Oryza sativa (ORYSA); 5 g/ha,20%
Cn1c(C(F)(F)F)cc(=O)n(-c2cc(Oc3ccccc3OCC(=O)OCc3cccnn3)c(Cl)cc2F)c1=O [I.7-291],Post-emergence action at 1.25 g/ha against ABUTH in %,[1]; 1.25 g/ha,100%
same,Post-emergence action at 5 g/ha against ABUTH in %,[1]; 5 g/ha,100%
same,Post-emergence action at 20 g/ha against ABUTH in %,[1]; 20 g/ha,100%
same,Post-emergence action at 1.25 g/ha against AMARE in %,[2]; 1.25 g/ha,100%
same,Post-emergence action at 5 g/ha against AMARE in %,[2]; 5 g/ha,100%
same,Post-emergence action at 20 g/ha against AMARE in %,[2]; 20 g/ha,100%
same,Post-emergence action at 20 g/ha against AVEFA in %,Avena fatua (AVEFA),100%
same,Post-emergence action against PHBPU in %,[3]; dosage 1.25 g/ha,100%
same,Post-emergence action against PHBPU in %,[3]; dosage 5 g/ha,100%
same,Post-emergence action against PHBPU in %,[3]; dosage 20 g/ha,100%
same,Post-emergence action against POLCO in %,[4],100%
same,Post-emergence action against VERPE,Veronica persica (VERPE); 5 g/ha,100%
same,Post-emergence action against VERPE,Veronica persica (VERPE); 20 g/ha,100%
same,Post-emergence action against VIOTR,Viola tricolor (VIOTR); 1.25 g/ha,100%
same,Post-emergence action against VIOTR,Viola tricolor (VIOTR); 5 g/ha,100%
same,Post-emergence action against VIOTR,Viola tricolor (VIOTR); 20 g/ha,100%
same,Post-emergence action at 5 g/ha against ALOMY in %,[5]; 5 g/ha,80%
same,Post-emergence action at 20 g/ha against ALOMY in %,[5]; 20 g/ha,100%
same,Post-emergence action against ECHCG in %,[6]; dosage 5 g/ha,100%
same,Post-emergence action against ECHCG in %,[6]; dosage 20 g/ha,100%
same,Post-emergence action against MATIN in %,[7]; dosage 5 g/ha,100%
same,Post-emergence action against MATIN in %,[7]; dosage 20 g/ha,100%
same,Post-emergence action against SETVI,Setaria viridis (SETVI); 20 g/ha,100%
same,Post-emergence action against SETVI in %,Setaria viridis (SETVI); dosage 1.25 g/ha,100%
same,Post-emergence action against SETVI in %,Setaria viridis (SETVI); dosage 5 g/ha,100%
same,Post-emergence action against TRZAS (crop plant compatibility),[8]; 1.25 g/ha,0%
same,Post-emergence action against TRZAS (crop plant compatibility),[8]; 5 g/ha,0%
same,Post-emergence action against ZEAMX (crop plant compatibility),Zea mays (ZEAMX),10%
same,Post-emergence action against ORYSA (crop plant compatibility),Oryza sativa (ORYSA); 1.25 g/ha,20%
